Experimental data published in PMC7583830 (Molecules, 2020).
Several values for one entry are separate records, joined by “and”; a condition that tells them apart may be missing. Identical values can stand only once. Like-named read-outs stand apart in the source and are kept apart here. Where a SMILES comes first, the peptide text is derived from it. [ ]: non-standard residue; d: D form. The star is where a group is joined. DOTA = O=C(O)CN1CCN(CC(=O)O)CCN(CC(=O)*)CCN(CC(=O)O)CC1; 1Nal = N[C@@H](Cc1cccc2ccccc12)C(=O)O; NMeNle = CCCC[C@H](NC)C(=O)O

Key:
[1] = Protein binding in human serum by size exclusion chromatography; format: in vitro ADME; settings: 24 h incubation
Description: For protein binding assessment, the radiolabeled DOTA-peptides were incubated in fresh human serum at 37 °C (500 pmol/mL, n = 2). After 1, 4 and 24 h of incubation, two samples were taken for each time point and analyzed by Sephadex G-50 size-exclusion chromatography (GE Healthcare Illustra, Little Chalfont, UK). The percentage of protein binding was determined by measuring the column and the eluate with the gamma-counter.

[2] = Stability in fresh human serum (radio-HPLC); format: in vitro ADME; settings: 24 h incubation, 37 °C
Description: (§1) In vitro stability studies for the characterization of the metabolic stability of the radiolabeled peptide analogs in human serum were carried out with [^177Lu]Lu-1, [^177Lu]Lu-M1, [^177Lu]Lu-M2, [^177Lu]Lu-M3 and [^177Lu]Lu-M4 (n = 2). Additional stability studies in rat liver and kidney homogenates were performed for [^177Lu]Lu-1 (n = 2). Tissue homogenates were prepared from dissected organs by homogenization for 1 min at RT (IKA-Werke, Staufen, Germany) in 20 mM HEPES buffer pH 7.3 (30% v/v). The radioligands were incubated in the different media at a concentration of 500 pmol/mL (corresponding to an activity of 6–11 MBq). After incubation at 37 °C at different time points for up to 24 h, a 100 µl sample was taken in duplicates and analyzed by HPLC. Samples obtained from human serum and rat homogenates were treated with ACN at a ratio of 1:1.5 (v/v) to precipitate proteins, centrifuged (14,000 rpm, 2 min, centrifuge 5424, Eppendorf AG, Germany) and diluted with water at a ratio of 1:1 (v/v). A 100 µl aliquot of this solution was injected into the radio HPLC system. The degradation of the radioligand was evaluated based on the radiochemical purity after radiolabeling and the percentage of intact radiopeptide observed during incubation in the different media.

[3] = Stability in rat kidney homogenate; format: in vitro ADME
Description: as §1

[4] = Metabolic stability in vivo and radiometabolites (radio-HPLC of blood, urine, liver, kidney); design: species or system BALB/c mice
Description: (§2) Metabolic biodistribution studies were performed in accordance with the ethical standards of the institution and approved by the Austrian Ministry of Science (BMWFW-66.011/0072-V/3b/2019). These studies were carried out in 5- to 7-week-old female BALB/c mice (n = 3) injected with [^177Lu]Lu-1 via a lateral tail vein. To allow monitoring of the metabolites by radio-HPLC, mice were injected with 30 MBq corresponding to 0.8 nmol total peptide. The mice were euthanized by cervical dislocation after different time points of 10 min, 30 min and 1 h p.i. and the urine and a venous blood sample were collected at the time of sacrifice. Liver and kidneys were dissected and homogenized in 20 mM HEPES buffer pH 7.3 at a ratio of 1:1 (v/v) with an Ultra-Turrax T8 homogenizer (IKA-Werke, Staufen, Germany) for 1 min at RT. Before radio-HPLC analysis, the samples (except urine) were treated with ACN at a ratio of 1:1 (v/v) to precipitate proteins, centrifuged at 2000× g for 2 min and diluted with water at a ratio of 1:1 (v/v). For HPLC analysis of the samples, the analytical HPLC system described above with a flow rate of 1 mL/min was used together with the following optimized water/ACN/0.1% TFA gradient to allow a better separation of [^177Lu]Lu-1 and the different radiometabolites: 0–7 min 1–7% ACN, 7–8 min 7–10% ACN, 8–18 min 10–18% ACN, 18–20 min 18–32% ACN, 20–27 min 32% ACN, 27–37 min […], 37–40 min 80% ACN, 40–40.1 min 80–1% ACN, 40.1–45 min 1% ACN. Urine was measured with the low-sensitivity loop of the radiodetector. The remaining samples were analyzed with the high-sensitivity loop due to the lower radioactivity present in blood, liver and kidney homogenate. To quantify the percentage of intact [^177Lu]Lu-1 and [^177Lu]Lu-M1 showing some overlap in the radiochromatogram when using the high-sensitivity loop of the radiodetector, the two radiopeptides were co-injected at different known ratios to enable a more accurate separation and integration of the two peaks (see supporting Figure S4). Mice from the metabolic biodistribution studies were subjected to a further dissection of all remaining tissues (blood, lung, heart, femur, spleen, muscle, intestine, pancreas and stomach). All organs, also including liver and kidneys, were weighed, and their radioactivity was measured in the gamma counter together with a standard and the residual body. To quantify the uptake of radioactivity in liver and kidneys, a part of liver and kidney homogenate was measured in the gamma counter to extrapolate the radioactivity for the whole organ.

[5] = Stability in rat liver homogenate; format: in vitro ADME
Description: as §1

[6] = Biodistribution in BALB/c mice; format: in vivo; settings: for tissue uptake at 0.5 h / tissue uptake at 1 h / tissue uptake at 10 min: female, BALB/c, mouse, iv, total radioactivity; for tissue uptake at 0.5 h: 30 min p.i.; for tissue uptake at 1 h: 1 h p.i.
Description: as §2

[7] = blood, 30 MBq, read-out: uptake in blood
[8] = femur, 30 MBq, read-out: uptake in femur
[9] = heart, 30 MBq, read-out: uptake in heart
[10] = intestine, 30 MBq, read-out: uptake in intestine
[11] = kidneys, 30 MBq, read-out: uptake in kidneys
[12] = liver, 30 MBq, read-out: uptake in liver
[13] = lung, 30 MBq, read-out: uptake in lung
[14] = muscle, 30 MBq, read-out: uptake in muscle
[15] = pancreas, 30 MBq, read-out: uptake in pancreas
[16] = spleen, 30 MBq, read-out: uptake in spleen
[17] = stomach, 30 MBq, read-out: uptake in stomach

Work on `CCCC[C@@H](C(=O)N[C@@H](CC(=O)O)C(=O)N[C@@H](Cc1cccc2ccccc12)C(N)=O)N(C)C(=O)[C@H](Cc1c[nH]c2ccccc12)NC(=O)CNC(=O)[C@H](Cc1ccc(O)cc1)NC(=O)[C@@H]1CCCN1C(=O)[C@@H](CCC(=O)O)NC(=O)CN1CCN(CC(=O)O)CCN(CC(=O)O)CCN(CC(=O)O)CC1` [[^177Lu]Lu-1, metal not drawn] ({DOTA}-[dE]PYGW[NMeNle]D[1Nal]-NH2) yielded a fraction unbound [1] of 0.622, an intact radiopeptide [2] of 96.2 ± 1.3% and an intact radiopeptide ([3]; 20 min) of 65.6 ± 2.8%. For the same compound, the intact radiopeptide ([3]; 30 min) was 43.9 ± 1.0% and 44%, the intact radiopeptide ([3]; 2 h) was less than 5% and the intact radiopeptide ([3]; 24 h) was less than 1%. For the same compound, the “total amount of radiometabolites” value ([4]; blood, 10 min p.i.) was 19.5%, the “total amount of radiometabolites” value ([4]; blood, 30 min p.i.) was 35.9% and the “percentage of intact radiopeptide / radiometabolite” value ([4]; blood, 30 min p.i., mice injected i.v. with [177Lu]Lu-1) was 64.1%. The “total amount of radiometabolites” value ([4]; blood, 60 min p.i.) was 43.1%, the “percentage of intact radiopeptide / radiometabolite” value ([4]; blood, 60 min p.i., mice injected i.v. with [177Lu]Lu-1) was 56.9% and the “percentage of intact radiopeptide / radiometabolite” value ([4]; kidney homogenate soluble phase, 10 min p.i.) was 29.7%. For the same compound, the “percentage of intact radiopeptide / radiometabolite” value ([4]; kidney, 30 min p.i.) was 18.0%, the “percentage of intact radiopeptide / radiometabolite” value ([4]; kidney, 60 min p.i.) was 7.0% and the intact radiopeptide ([4]; kidneys and urine, studied time points) was less than 30%. For the same compound, the “percentage of intact radiopeptide / radiometabolite” value ([4]; liver homogenate soluble phase, 10 min p.i.) was 71.9%, the “percentage of intact radiopeptide / radiometabolite” value ([4]; liver, 30 min p.i.) was 53.9% and the “percentage of intact radiopeptide / radiometabolite” value ([4]; liver, 60 min p.i.) was 47.7%. The “percentage of intact radiopeptide / radiometabolite” value ([4]; urine, 10 min p.i.) was 29.1% and 29%, the “percentage of intact radiopeptide / radiometabolite” value ([4]; urine, 30 min p.i.) was 19.4% and the “percentage of intact radiopeptide / radiometabolite” value ([4]; urine, 60 min p.i.) was 18%. The intact radiopeptide ([5]; 30 min) was 83.6 ± 0.2% and 84%, the intact radiopeptide ([5]; 2 h) was 52.9 ± 2.0% and > 50% and the intact radiopeptide ([5]; 24 h) was 49.3 ± 1.7%. The intact radiopeptide ([5]; up to 20 min incubation) was greater than 90%, the whole body activity ([6]; 10 min p.i.) was 61.78 % IA and the whole body activity ([6]; 1 h after injection) was 12.27 % IA. It also gave a tissue uptake at 0.5 h [6, 7] of 5.08 %ID/g, a tissue uptake at 1 h [6, 7] of 2.05 %ID/g and a tissue uptake at 10 min ([6]; blood, 10 min p.i., 30–40 MBq, 0.8 nmol, read-out: uptake in blood) of 17.8 %ID/g. For the same compound, the tissue uptake at 10 min ([6]; femur, 30 MBq, 10 min p.i., read-out: uptake in femur) was 5.97 %ID/g, the tissue uptake at 0.5 h [6, 8] was 1.28 %ID/g and the tissue uptake at 1 h [6, 8] was 0.52 %ID/g. For the same compound, the tissue uptake at 10 min ([6]; heart, 30 MBq, 10 min p.i., read-out: uptake in heart) was 7.13 %ID/g, the tissue uptake at 0.5 h [6, 9] was 2.72 %ID/g and the tissue uptake at 1 h [6, 9] was 0.99 %ID/g. It also gave a tissue uptake at 10 min ([6]; intestine, 30 MBq, 10 min p.i., read-out: uptake in intestine) of 2.63 %ID/g, a tissue uptake at 0.5 h [6, 10] of 1.61 %ID/g and a tissue uptake at 1 h [6, 10] of 1.02 %ID/g. For the same compound, the tissue uptake at 10 min ([6]; kidneys, 30 MBq, 10 min p.i., read-out: uptake in kidneys) was 14.5 %ID/g, the tissue uptake at 0.5 h [6, 11] was 10.8 %ID/g and the tissue uptake at 1 h [6, 11] was 7.01 %ID/g. For the same compound, the tissue uptake at 10 min ([6]; liver, 30 MBq, 10 min p.i., read-out: uptake in liver) was 5.37 %ID/g, the tissue uptake at 0.5 h [6, 12] was 2.95 %ID/g and the tissue uptake at 1 h [6, 12] was 1.26 %ID/g. For the same compound, the tissue uptake at 10 min ([6]; lung, 30 MBq, 10 min p.i., read-out: uptake in lung) was 17.4 %ID/g, the tissue uptake at 0.5 h [6, 13] was 5.03 %ID/g and the tissue uptake at 1 h [6, 13] was 1.95 %ID/g. For the same compound, the tissue uptake at 10 min ([6]; muscle, 30 MBq, 10 min p.i., read-out: uptake in muscle) was 2.56 %ID/g, the tissue uptake at 0.5 h [6, 14] was 1.03 %ID/g and the tissue uptake at 1 h [6, 14] was 0.36 %ID/g. The tissue uptake at 10 min ([6]; pancreas, 30 MBq, 10 min p.i., read-out: uptake in pancreas) was 3.39 %ID/g, the tissue uptake at 0.5 h [6, 15] was 1.76 %ID/g and the tissue uptake at 1 h [6, 15] was 0.84 %ID/g. For the same compound, the tissue uptake at 10 min ([6]; spleen, 30 MBq, 10 min p.i., read-out: uptake in spleen) was 3.7 %ID/g, the tissue uptake at 0.5 h [6, 16] was 2 %ID/g and the tissue uptake at 1 h [6, 16] was 0.79 %ID/g. The tissue uptake at 10 min ([6]; stomach, 30 MBq, 10 min p.i., read-out: uptake in stomach) was 3.36 %ID/g, the tissue uptake at 0.5 h [6, 17] was 2.29 %ID/g and the tissue uptake at 1 h [6, 17] was 1.39 %ID/g. The “washout at 1 h versus 10 min p.i.” value ([6]; non-excretory organs (blood, lung, heart, femur, spleen and muscle)) was 79–91%, the “percentage decrease of radioactivity at 1 h versus 10 min p.i.” value ([6]; pancreas) was 75% and the “percentage decrease of radioactivity at 1 h versus 10 min p.i.” value ([6]; stomach) was 59%.
